According to patent publication US8395037B2, “Pharmaceutical compositions for treating/preventing motor organ diseases” (Mitsubishi Corporation, priority 2005, dated 2013):

Test system: proteoglycan
Assay: Proteoglycan production in cultured chondrocytes (western blotting)
Format: cell-based, human
Details: chondrocytes treated with cartilage degenerating factors
Experimental: Chondrocytes prepared according to the above method and chondrocytes of the control groups were collected with a cell scraper, and centrifuged to remove the supernatant. Then, 0.5% Triton X-100 aqueous solution was added thereto, and ultrasonic disintegration was performed on ice for one minute, to obtain a protein extract. The concentrations of the respective protein solutions were measured, and each sample was placed on 5% to 10% gradient SDS-polyacrylamide electrophoresis gel at 100 ng/lane, and subjected to electrophoresis.
Proteins in the gel were transferred onto a polyvinylidene difluoride membrane (manufactured by Pharmacia Co.) using a semidry blotting apparatus (manufactured by Amersham). The membrane was blocked with 5% skim milk (manufactured by Morinaga Co.), and then treated with 5 μg/ml of anti-proteoglycan monoclonal antibodies (manufactured by Chemicon Co.) at room temperature for one hour. The membrane was washed with PBS containing 0.01% Tween-20 (hereunder, abbreviated as “TPBS”), and then treated with 5,000-fold-diluted peroxidase-labeled anti-mouse IgG antibodies (manufactured by Amersham) as secondary antibodies, at room temperature for one hour. […]

hydroxylated C60 fullerene was tested, and the “Production of proteoglycan (western blotting)” value was “the inhibition against the production of cartilage matrix, proteoglycan, due to the cartilage degenerating factors was inhibited” and the “Production of proteoglycan (western blotting)” value (listed as fullerene) was “restored”.
